Assay results published in ChEMBL document CHEMBL5625223 (Eur J Med Chem, 2023).

Legend:
[1] = molecular target: T1, 5-hydroxytryptamine receptor 2A (Homo sapiens, UniProt P28223); assay: Displacement of [3H]ketanserin from human 5-HT2A receptor expressed in HEK293 cells at 10 uM incubated for 1 hr relative to control; type: cell-based
[2] = molecular target: T2, 5-hydroxytryptamine receptor 2C (Homo sapiens, UniProt P28335); assay: Displacement of [3H]-Mesulergine from human 5-HT2C expressed in Flp-In-T-REx-293 cells assessed as inhibition constant incubated for 1 hr; type: cell-based
T2 sequence (P28335 whole entry): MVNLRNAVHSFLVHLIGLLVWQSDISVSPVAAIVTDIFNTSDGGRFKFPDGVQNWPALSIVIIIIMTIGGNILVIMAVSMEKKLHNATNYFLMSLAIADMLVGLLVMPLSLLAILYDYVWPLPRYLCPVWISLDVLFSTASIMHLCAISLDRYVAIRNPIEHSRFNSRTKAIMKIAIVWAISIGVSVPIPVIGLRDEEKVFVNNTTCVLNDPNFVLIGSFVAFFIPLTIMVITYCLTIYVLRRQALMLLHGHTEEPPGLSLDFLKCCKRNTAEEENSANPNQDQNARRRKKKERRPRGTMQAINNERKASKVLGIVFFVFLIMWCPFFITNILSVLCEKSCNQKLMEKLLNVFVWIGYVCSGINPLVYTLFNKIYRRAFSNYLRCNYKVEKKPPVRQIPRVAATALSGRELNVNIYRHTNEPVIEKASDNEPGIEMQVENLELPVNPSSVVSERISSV

Adenosine receptor A1 = molecular target: T3, Adenosine receptor A1 (Homo sapiens, UniProt P30542); assay: Displacement of […] from human A1AR expressed in Flp-In-T-REx-293 cells assessed as inhibition constant; type: cell-based
T3 sequence (P30542 whole entry): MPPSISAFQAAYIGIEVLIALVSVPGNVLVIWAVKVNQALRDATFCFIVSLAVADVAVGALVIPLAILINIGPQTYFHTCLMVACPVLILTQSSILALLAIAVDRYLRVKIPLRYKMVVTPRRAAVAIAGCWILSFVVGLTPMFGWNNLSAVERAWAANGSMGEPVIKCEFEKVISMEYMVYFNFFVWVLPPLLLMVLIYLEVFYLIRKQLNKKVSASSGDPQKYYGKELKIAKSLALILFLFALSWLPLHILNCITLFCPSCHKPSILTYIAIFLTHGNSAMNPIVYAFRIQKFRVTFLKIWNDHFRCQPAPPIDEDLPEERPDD

Adenosine receptor A3 = molecular target: T4, Adenosine receptor A3 (Homo sapiens, UniProt P0DMS8); assay: Displacement of […] from human A3AR expressed in HEK cells assessed as inhibition constant; type: cell-based
T4 sequence (P0DMS8 whole entry): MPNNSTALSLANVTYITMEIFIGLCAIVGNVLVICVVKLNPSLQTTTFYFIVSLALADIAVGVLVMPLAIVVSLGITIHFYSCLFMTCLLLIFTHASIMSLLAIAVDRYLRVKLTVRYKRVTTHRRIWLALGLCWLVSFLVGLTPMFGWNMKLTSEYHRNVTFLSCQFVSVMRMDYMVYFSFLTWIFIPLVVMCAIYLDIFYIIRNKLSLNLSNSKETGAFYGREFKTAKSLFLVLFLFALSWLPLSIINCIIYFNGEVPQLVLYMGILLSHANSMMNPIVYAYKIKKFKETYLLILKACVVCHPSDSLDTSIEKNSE

[3] = molecular target: T5, 5-hydroxytryptamine receptor 2B (Homo sapiens, UniProt P41595); assay: Displacement of [3H]-LSD from human 5-HT2B receptor expressed in HEK cells assessed as inhibition constant incubated for 1 hr; type: cell-based
T5 sequence (P41595 whole entry): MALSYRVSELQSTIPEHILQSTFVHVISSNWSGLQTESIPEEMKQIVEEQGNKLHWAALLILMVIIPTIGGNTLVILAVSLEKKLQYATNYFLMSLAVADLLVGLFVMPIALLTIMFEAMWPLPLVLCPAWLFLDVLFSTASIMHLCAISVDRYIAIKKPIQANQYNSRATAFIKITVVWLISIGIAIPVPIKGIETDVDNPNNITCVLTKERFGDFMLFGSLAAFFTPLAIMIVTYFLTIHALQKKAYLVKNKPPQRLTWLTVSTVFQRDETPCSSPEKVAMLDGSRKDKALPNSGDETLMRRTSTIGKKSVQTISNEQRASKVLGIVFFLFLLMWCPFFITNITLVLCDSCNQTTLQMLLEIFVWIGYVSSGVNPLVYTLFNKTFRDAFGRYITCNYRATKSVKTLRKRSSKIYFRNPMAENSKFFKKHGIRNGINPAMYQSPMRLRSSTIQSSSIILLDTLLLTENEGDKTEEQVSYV

[4] = molecular target: T6, 5-hydroxytryptamine receptor 2C (Homo sapiens) (UniProt P28335); assay: Displacement of [3H]-Mesulergine from human 5-HT2C expressed in Flp-In-T-REx-293 cells at 10 uM incubated for 1 hr relative to control; type: cell-based
T6 sequence (whole entry): T2 sequence (P28335 whole entry)

[5] = molecular target: Adenosine receptor A2a (Homo sapiens) (UniProt P29274); assay: Displacement of […] from human A2AR expressed in HEK cells at 10 uM relative to control; type: cell-based
Sequence of Adenosine receptor A2a (Homo sapiens) (P29274 whole entry): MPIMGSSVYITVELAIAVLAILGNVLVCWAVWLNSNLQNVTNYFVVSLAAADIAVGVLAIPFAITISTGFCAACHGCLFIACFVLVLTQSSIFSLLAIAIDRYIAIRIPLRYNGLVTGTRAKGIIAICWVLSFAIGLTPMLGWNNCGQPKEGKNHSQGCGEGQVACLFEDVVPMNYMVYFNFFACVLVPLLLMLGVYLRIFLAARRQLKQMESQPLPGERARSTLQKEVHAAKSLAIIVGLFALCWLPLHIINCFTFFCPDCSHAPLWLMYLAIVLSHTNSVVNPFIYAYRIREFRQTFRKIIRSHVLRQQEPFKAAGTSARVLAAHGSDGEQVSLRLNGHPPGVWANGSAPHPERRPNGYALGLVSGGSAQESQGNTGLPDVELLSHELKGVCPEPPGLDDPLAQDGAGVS

[6] = molecular target: T1, 5-hydroxytryptamine receptor 2A; assay: Binding affinity to 5HT2A receptor (unknown origin) at 10 uM relative to control
[7] = molecular target: T2, 5-hydroxytryptamine receptor 2C; assay: Binding affinity to 5HT2C receptor (unknown origin) assessed as inhibition constant
[8] = molecular target: T5, 5-hydroxytryptamine receptor 2B; assay: Displacement of [3H]-LSD from human 5-HT2B receptor expressed in HEK cells at 10 uM incubated for 1 hr relative to control; type: cell-based
[9] = molecular target: T7, Adenosine receptor A3 (Homo sapiens) (UniProt P0DMS8); assay: Displacement of […] from human A3AR expressed in HEK cells at 10 uM relative to control; type: cell-based
T7 sequence (whole entry): T4 sequence (P0DMS8 whole entry)

[10] = molecular target: T5, 5-hydroxytryptamine receptor 2B; assay: Binding affinity to 5HT2B receptor (unknown origin) assessed as inhibition constant
[11] = molecular target: T6, 5-hydroxytryptamine receptor 2C (Homo sapiens); conditions: Flp-In-T-REx-293, filed as antagonist, time 1.0 hrs
[12] = molecular target: T1, 5-hydroxytryptamine receptor 2A; conditions: Flp-In-T-REx-293, time 1.0 hrs
[13] = molecular target: T6, 5-hydroxytryptamine receptor 2C (Homo sapiens); assay: Binding affinity to 5HT2C receptor (unknown origin) at 10 uM relative to control
[14] = molecular target: T8, Alpha-2B adrenergic receptor (Homo sapiens, UniProt P18089); assay: Binding affinity to alpha2B receptor (unknown origin) assessed as inhibition constant
T8 sequence (P18089 whole entry): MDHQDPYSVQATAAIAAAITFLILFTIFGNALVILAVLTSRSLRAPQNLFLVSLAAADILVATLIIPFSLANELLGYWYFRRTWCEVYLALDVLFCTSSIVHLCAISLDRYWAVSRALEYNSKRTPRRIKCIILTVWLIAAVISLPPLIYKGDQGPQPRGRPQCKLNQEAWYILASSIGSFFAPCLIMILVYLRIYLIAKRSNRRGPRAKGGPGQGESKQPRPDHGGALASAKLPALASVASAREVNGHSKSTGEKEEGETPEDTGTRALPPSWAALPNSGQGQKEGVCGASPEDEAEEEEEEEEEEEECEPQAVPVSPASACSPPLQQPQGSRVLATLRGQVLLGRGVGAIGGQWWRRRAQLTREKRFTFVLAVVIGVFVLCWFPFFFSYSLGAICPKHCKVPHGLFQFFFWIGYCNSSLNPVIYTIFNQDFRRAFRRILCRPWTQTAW

[15] = molecular target: 5-hydroxytryptamine receptor 1D (Homo sapiens, UniProt P28221); assay: Binding affinity to 5HT1D receptor (unknown origin) assessed as inhibition constant
Sequence of 5-hydroxytryptamine receptor 1D (P28221 whole entry): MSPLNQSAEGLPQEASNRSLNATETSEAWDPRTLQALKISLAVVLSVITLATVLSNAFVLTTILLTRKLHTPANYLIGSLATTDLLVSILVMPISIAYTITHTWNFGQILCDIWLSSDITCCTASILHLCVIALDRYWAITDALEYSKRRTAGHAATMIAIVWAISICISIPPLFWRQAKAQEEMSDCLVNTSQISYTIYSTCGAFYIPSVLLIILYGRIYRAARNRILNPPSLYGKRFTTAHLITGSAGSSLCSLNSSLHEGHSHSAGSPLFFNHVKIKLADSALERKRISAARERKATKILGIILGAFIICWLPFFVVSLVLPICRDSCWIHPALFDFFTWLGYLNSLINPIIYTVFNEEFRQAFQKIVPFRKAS

T1 sequence (P28223 whole entry): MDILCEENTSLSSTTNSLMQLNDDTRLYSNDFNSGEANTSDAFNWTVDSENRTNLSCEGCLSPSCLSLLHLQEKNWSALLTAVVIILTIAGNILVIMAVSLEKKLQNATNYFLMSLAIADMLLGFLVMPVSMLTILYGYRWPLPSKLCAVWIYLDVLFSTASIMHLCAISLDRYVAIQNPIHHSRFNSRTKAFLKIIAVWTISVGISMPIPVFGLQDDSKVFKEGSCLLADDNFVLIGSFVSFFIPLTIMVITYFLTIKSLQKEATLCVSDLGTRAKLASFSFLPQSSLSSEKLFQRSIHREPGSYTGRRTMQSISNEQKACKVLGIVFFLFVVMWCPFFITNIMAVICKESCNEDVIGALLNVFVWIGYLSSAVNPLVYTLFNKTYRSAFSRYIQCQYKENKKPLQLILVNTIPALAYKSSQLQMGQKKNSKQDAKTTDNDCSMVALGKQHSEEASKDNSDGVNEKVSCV

SMILES	Activity [1] [%]	Ki ([2]; read-out: Ki) [nM]	Ki (Adenosine receptor A1) [nM]	Ki (Adenosine receptor A3) [nM]	Activity [4] [%]	Activity [5] [%]	other results
CSC[C@@]12C[C@@H]1[C@@H](n1cnc3c(NC(C4CC4)C4CC4)nc(Cl)nc31)[C@H](O)[C@@H]2O	19	772	63.2	932			
CCCCSC[C@@]12C[C@@H]1[C@@H](n1cnc3c(NC(C4CCCC4)C4CCCC4)nc(Cl)nc31)[C@H](O)[C@@H]2O	22				27	8	Ki [3]: 549 nM
O[C@H]1[C@H](n2cnc3c(NC(C4CCC4)C4CCC4)nc(Cl)nc32)[C@H]2C[C@@]2(CCl)[C@H]1O							Activity [6]: 28%; Ki [7]: 908 nM
COCCN(CCOC)C(=O)[C@]12C[C@H]1[C@H](n1cnc3c(N)nc(Cl)nc31)[C@@H](O)[C@H]2O (single isomer, unassigned)	3				12		Activity [8]: 36%; Activity ([9]; filed as agonist): 51%
CCOC(=O)[C@@]12C[C@@H]1[C@@H](n1cnc3c(NC(C4CCC4)C4CCC4)nc(Cl)nc31)[C@H](O)[C@@H]2O							Activity [6]: 35%; Ki [10]: 136 nM; Ki [7]: 351 nM
CSC[C@@]12C[C@@H]1[C@@H](n1cnc3c(NC(C4CC4)C4CC4)nc(I)nc31)[C@H](O)[C@@H]2O	16	493	466				Ki [3]: 522 nM; Activity ([5]; filed as agonist): 40%; Activity ([9]; filed as agonist): 62%
OC[C@@]12C[C@@H]1[C@@H](n1cnc3c(NC(C4CCC4)C4CCC4)ncnc31)[C@H](O)[C@@H]2O							Activity [6]: 18%; Ki [10]: 186 nM; Ki [7]: 1020 nM
OC[C@@]12C[C@@H]1[C@@H](n1cnc3c(N[C@H](C4CCC4)C4CC4)nc(I)nc31)[C@H](O)[C@@H]2O	29	670	42.7				Ki ([2]; read-out: pKi (converted)): 603 nM; Activity ([5]; filed as agonist): 50%; Activity [9]: 34%; pKb [11]: 6.54; pKb [12]: < 5
Nc1nc(I)nc2c1ncn2[C@H]1[C@H](O)[C@H](O)[C@]2(CCl)C[C@H]12	0		147	390	12		Activity [8]: 11%
CNC(=O)[C@]12C[C@@H]1[C@@H](n1cnc3c(NC4CCCC4)nc(Cl)nc31)[C@H](O)[C@@H]2O							Activity [6]: 0%; Ki [10]: 78.2 nM; Activity ([13]; filed as antagonist): 44%
CC(C)[C@@H](Nc1nc(I)nc2c1ncn2[C@H]1[C@H](O)[C@H](O)[C@]2(CO)C[C@H]12)C1CC1	7	904	30.7	11700			Ki [3]: 81.9 nM; Activity ([5]; filed as agonist): 60%
O[C@@H]1[C@H](O)[C@@H]2C[C@@H]2[C@H]1n1cnc2c(NC(C3CCCC3)C3CCCC3)nc(Cl)nc21	22					24	
O[C@@H]1[C@H](O)[C@@H]2C[C@@H]2[C@H]1n1ccc2c(NC(C3CC3)C3CC3)nc(I)nc21							Activity [6]: 3%; Ki [10]: 1300 nM; pKi [10]: 5.88; Activity [13]: 30%
CSC[C@@]12C[C@@H]1[C@@H](n1cnc3c(N)nc(I)nc31)[C@H](O)[C@@H]2O	0		1350	92.5	12		Activity [8]: 12%
O[C@H]1[C@H](n2cnc3c(NC(C4CCC4)C4CCC4)ncnc32)[C@H]2C[C@@]2(CCl)[C@H]1O							Activity [6]: 11%; Ki [10]: 1090 nM; Ki [7]: 1230 nM
O[C@H]1[C@H](n2cnc3c(NC(C4CC4)C4CC4)nc(Cl)nc32)[C@H]2C[C@@]2(CF)[C@H]1O	14		5.95	3700			Activity ([4]; filed as antagonist): 47%; Activity ([5]; filed as agonist): 55%
Ic1nc(N[C@H](C2CCC2)C2CC2)c2nc[nH]c2n1	-10		648		5		Ki [3]: 313 nM
CCOC(=O)[C@@]12C[C@@H]1[C@@H](n1cnc3c(NC(C4CCCC4)C4CCCC4)nc(Cl)nc31)[C@H](O)[C@@H]2O		139		9720		-22	Activity ([1]; filed as antagonist): 42%; Ki [3]: 239 nM
OC[C@@]12C[C@@H]1[C@@H](n1cnc3c(NC(C4CCCCC4)C4CCCCC4)nc(Cl)nc31)[C@H](O)[C@@H]2O				16600		7	Activity ([1]; filed as antagonist): 47%
OC[C@H]1O[C@@H](n2cnc3c(N[C@H](C4CCC4)C4CC4)nc(I)nc32)[C@H](O)[C@@H]1O	6		21.3		-1		Activity ([8]; filed as antagonist): 44%; Activity ([5]; filed as agonist): 72%; Activity [9]: 34%
NC[C@H]1O[C@@H](n2cnc3c(N[C@H](C4CCC4)C4CC4)nc(I)nc32)[C@H](O)[C@@H]1O	9		147		-1	39	Ki [3]: 178 nM; Activity ([9]; filed as agonist): 56%
Nc1nc(I)nc2c1ncn2[C@H]1[C@H](O)[C@H](O)[C@]2(CO)C[C@H]12	-27				-38		Activity [8]: -3%
CSC[C@@]12C[C@@H]1[C@@H](n1cnc3c(NC(C4CCCC4)C4CCCC4)nc(Cl)nc31)[C@H](O)[C@@H]2O		481		5270		-12	Activity ([1]; filed as antagonist): 47%; Ki [14]: 1700 nM
O[C@H]1[C@H](n2cnc3c(NC(C4CCCCC4)C4CCCCC4)nc(Cl)nc32)[C@H]2C[C@@]2(CCl)[C@H]1O		73.5		9320		-9	
OC[C@@]12C[C@@H]1[C@@H](n1cnc3c(NC(C4CC4)C4CC4)nc(I)nc31)[C@H](O)[C@@H]2O	35	249	13.4	7810			Activity ([5]; filed as agonist): 63%
COCCN(CCOC)C(=O)[C@]12C[C@H]1[C@H](n1cnc3c(NC(C4CC4)C4CC4)nc(Cl)nc31)[C@@H](O)[C@H]2O (single isomer, unassigned)	0				38	34	Activity [9]: 30%
O[C@H]1[C@H](n2cnc3c(NC(C4CCCCC4)C4CCCCC4)nc(Cl)nc32)[C@H]2C[C@@]2(CF)[C@H]1O		163		5040		-27	Ki [15]: 5500 nM; Ki [14]: 3600 nM
OC[C@@]12C[C@@H]1[C@@H](n1cnc3c(NC(C4CCC4)C4CCC4)nc(Cl)nc31)[C@H](O)[C@@H]2O							Activity [6]: 8%; Ki [7]: 368 nM
